Source: patent US11324787B2, “Analytical methods and arrays for use in the same” (SENZAGEN AB, priority 2017, dated 2022)
Counter-ions that a name gives are not always drawn. Like-named read-outs stand apart in the source and are kept apart here. Blank lines part the entries; values can stand above or below the compound they belong to.

Legend:
[1] = cited from earlier work; for binary class: sens / non-sens; for true CLP: test set
[2] = cited from earlier work; for Human potency: class 1 representing highest potency, 6 representing non-sensitizers; for HP: human potency, chemicals of random forest training and test set; for binary class (HP*): based on human potency [41] where available, otherwise according to CLP; for Human potency [41]: test set
[3] = system: myeloid cell line derived from MUTZ-3; assay: GARD binary classification (SVM on GARD prediction signature, 200 transcripts)
[4] = system: myeloid cell line derived from MUTZ-3; assay: GARD random forest model predicting CLP categories (52 transcripts, Example A); details: test set; for GARD predicted CLP: majority voting across replicates; for predicted CLP: separate replicates
[5] = Table 9, chemicals training set
[6] = chemicals of random forest training and test set
[7] = Table 8 chemical list, GARD SVM decision value
[8] = CLP annotation of 37 novel chemicals

SMILES: COC(=O)c1ccccc1O [methyl salicylate]
CLP [1, 5]: no cat
CLP [1, 6]: no cat
binary class [1, 6]: non-sens
Human potency [2]: 5
HP [2]: 5
SVM DV [3, 7]: −1.53

SMILES: CC(CC=O)CCCC(C)(C)O (stereo not drawn) [hydroxycitronellal]
CLP [1, 5]: 1B
CLP [1, 6]: 1B
binary class [1, 6]: sens
HP [2]: 4

SMILES: O=[N+]([O-])c1ccc(F)c([N+](=O)[O-])c1 [2,4-dinitrofluorobenzene, 2,4-Dinitrofluorobenzene]
CLP [1, 8]: 1A
CLP [1, 5]: 1A
CLP [1, 6]: 1A
binary class [1, 6]: sens
binary class (HP*) [2]: S (HP 1-4 = S)
GARD binary prediction ([3]; SVM, median calibrated decision value of replicates >0 = sensitizer): S

SMILES: C=O [formaldehyde]
SVM DV [3]: 2.32

SMILES: Nc1ccc(C(=O)O)cc1 [PABA]
Human potency [2]: 5
SVM DV [3, 7]: −1.04

SMILES: N#CCCC(Br)(C#N)CBr (stereo not drawn) [methyldibromo glutaronitrile]
CLP [1, 5]: 1A
CLP [1, 6]: 1A
binary class [1, 6]: sens
HP [2]: 2

SMILES: CCCCCCCC(=O)O [octanoic acid]
CLP [1, 5]: no cat
CLP [1, 6]: no cat
binary class [1, 6]: non-sens
Human potency [2]: 6
HP [2]: 6
SVM DV [3, 7]: −1.19

SMILES: CC(C=O)Cc1ccc(C(C)(C)C)cc1 (stereo not drawn) [lilial]
CLP [1, 8]: 1B
CLP [1, 5]: 1B
CLP [1, 6]: 1B
binary class [1, 6]: sens
binary class (HP*) [2]: S (HP 1-4 = S)

SMILES: CCCCCCCC/C=C\CCCCCCCC(=O)OCCOCC(OCCO)C1OCC(OCCO)C1OCCO (stereo not drawn) [Tween 80]
CLP [1, 5]: no cat
CLP [1, 6]: no cat
binary class [1, 6]: non-sens
Human potency [2]: 6
HP [2]: 6
SVM DV [3, 7]: −1.39

GARD predicted CLP [4]: 1B
predicted CLP [4]: 1B
SMILES: CC=Cc1ccc(OC)cc1 [anethole]
binary class (HP*) [2]: NS (5-6 = NS)
HP [2]: 5
Human potency [41] [2]: 5

SMILES: CC(O)CO (stereo not drawn) [Propylene glycol]
Human potency [2]: 5
SVM DV [3, 7]: −1.18

SMILES: O=[N+]([O-])c1ccc(CBr)cc1 [4-nitrobenzylbromide]
CLP [1, 5]: 1A
CLP [1, 6]: 1A
binary class [1, 6]: sens

SMILES: O=C(O)c1ccccc1 [benzoic acid]
CLP ([1]; Table 10, chemicals test set 1): no cat
CLP [1, 6]: no cat
binary class [1, 6]: non-sens
true CLP ([1]; per replicate line): no cat
true CLP [1]: no cat
binary class (HP*) [2]: NS (5-6 = NS)
GARD predicted CLP [4]: no cat
predicted CLP [4]: no cat

SMILES: CCOC(=O)c1ccccc1C(=O)OCC [diethyl phthalate]
CLP ([1]; Table 10, chemicals test set 1): no cat
CLP [1, 6]: no cat
binary class [1, 6]: non-sens
true CLP ([1]; per replicate line): no cat
true CLP [1]: no cat
HP [2]: 6
SVM DV [3, 7]: −2.15
GARD predicted CLP [4]: no cat
predicted CLP [4]: no cat

SMILES: O=C(O)c1ccccc1O [salicylic acid]
Human potency [2]: 6
HP [2]: 6
SVM DV [3, 7]: −1.41

SMILES: CC=Cc1ccc(O)c(OC)c1 [isoeugenol]
CLP [1, 5]: 1A
CLP [1, 6]: 1A
binary class [1, 6]: sens
HP [2]: 2

SMILES: O=CCc1ccccc1 [phenylacetaldehyde]
CLP [1, 5]: 1B
CLP [1, 6]: 1B
binary class [1, 6]: sens

SMILES: NC[C@H]1O[C@H](O[C@H]2[C@H](O)[C@@H](O[C@H]3O[C@H](CO)[C@@H](O)[C@H](N)[C@H]3O)[C@H](N)C[C@@H]2N)[C@H](O)[C@@H](O)[C@@H]1O [kanamycin A]
CLP [1, 5]: no cat
CLP [1, 6]: no cat
binary class [1, 6]: non-sens
binary class (HP*) [2]: NS (5-6 = NS)

SMILES: Clc1ccccc1 [chlorobenzene]
SVM DV [3, 7]: −1.63

SMILES: CCCOC(=O)c1cc(O)c(O)c(O)c1 [propyl gal late]
CLP ([1]; Table 10, chemicals test set 1): 1A

SMILES: C=CCc1ccc(O)c(OC)c1 [eugenol]
SVM DV [3, 7]: 1.02

SMILES: O=c1c(-c2ccccc2)c1-c1ccccc1 [diphenylcyclopropenone]
CLP [1, 5]: 1A
CLP [1, 6]: 1A
binary class [1, 6]: sens
HP [2]: 1

SMILES: OCC(O)CO [glycerol]
Human potency [2]: 6
HP [2]: 6
SVM DV [3, 7]: −2.05

GARD predicted CLP [4]: 1A
predicted CLP [4]: 1A
SMILES: CCOC(=O)/C=C\C(=O)OCC [diethyl maleate]
CLP ([1]; Table 10, chemicals test set 1): 1B
CLP [1, 6]: 1B
binary class [1, 6]: sens
true CLP ([1]; per replicate line): 1B
true CLP [1]: 1B
HP [2]: 2
Human potency [41] [2]: 2

SMILES: CCCCCCCCCCCCOS(=O)(=O)[O-].[Na+] [Sodium lauryl sulfate]
SVM DV [3, 7]: −1.52

SMILES: Nc1ccc(N)cc1 [p-phenylenediamine]
CLP ([1]; 11 benchmark chemicals): 1A
binary class ([1]; 11 benchmark chemicals): sens
CLP [1, 5]: 1A
CLP [1, 6]: 1A
binary class [1, 6]: sens

SMILES: CCCCCCCCCCCCOC(=O)c1cc(O)c(O)c(O)c1 [lauryl gallate]
CLP [1, 5]: 1A
CLP [1, 6]: 1A
binary class [1, 6]: sens
HP [2]: 2

SMILES: [K+].[K+].[O]=[Cr](=[O])([O-])[O][Cr](=[O])(=[O])[O-] [potassium dichromate]
CLP [1, 5]: 1A
CLP [1, 6]: 1A
binary class [1, 6]: sens

SMILES: O=Cc1ccccc1 [benzaldehyde]
SVM DV [3, 7]: −2.13
